Source: patent publication US11173145B2, “Compounds useful as inhibitors of indoleamine 2,3-dioxygenase and/or tryptophan dioxygenase” (Board of Regents, The University of Texas System, priority 2017, dated 2021)

Biological target: T1, IDO1 (Homo sapiens, UniProt P14902)
T1 construct: endogenous in cells; host or cells: HeLa cells (ATCC), IFNgamma-induced
Assay: IDO1 cell-based assay (HeLa cells, IFNgamma-induced, N-formylkynurenine/L-tryptophan by RFMS)
Details: 10 ng/mL IFNgamma, 24 hours
Method in brief: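 N-formylkynurenine and tryptophan peak areas in media measured by RFMS (C18, isocratic, d-Trp standard), giving IC50 values by regression. Source: HeLa cells incubated 24 h with IFNgamma (10 ng/mL) plus test compound at 0.5% DMSO; parallel CellTiter-Glo viability read.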

T1 sequence (P14902 whole entry): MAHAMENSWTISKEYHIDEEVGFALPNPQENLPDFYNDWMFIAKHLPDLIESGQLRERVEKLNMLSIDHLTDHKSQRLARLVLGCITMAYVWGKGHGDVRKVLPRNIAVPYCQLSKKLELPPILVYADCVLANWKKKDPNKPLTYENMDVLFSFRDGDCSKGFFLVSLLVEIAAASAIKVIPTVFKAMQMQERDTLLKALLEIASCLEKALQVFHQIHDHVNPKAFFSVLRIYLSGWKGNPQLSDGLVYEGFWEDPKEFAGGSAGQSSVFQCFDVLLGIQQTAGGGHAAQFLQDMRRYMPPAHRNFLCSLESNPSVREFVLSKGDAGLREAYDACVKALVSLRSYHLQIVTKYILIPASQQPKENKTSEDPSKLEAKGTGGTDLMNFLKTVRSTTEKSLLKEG

Compound	IC50 [nM]
CC(NC(=O)c1ccc(C#N)cc1)[C@H]1[C@@H]2C[C@@H](NC(=O)c3ccccn3)C[C@@H]21 (stereo partly drawn) [Compound 143, N-((1R,3s,5S,6r)-6-(1-(4-cyanobenzamido)ethyl)bicyclo[3.1.0]hexan-3-yl)picolinamide]	< 200
Cc1ccc(C(=O)NC[C@@H]2[C@H]3C[C@H](n4cnc5cc(F)c(F)cc54)C[C@@H]23)cc1 [Compound 322, N-(((1R,3s,5S,6r)-3-(5,6-difluoro-1H-benzo[d]imidazol-1-yl)bicyclo[3.1.0]hexan-6-yl)methyl)-4-methylbenzamide]	< 200
CCC(NC(=O)c1ccc(Cl)cc1)[C@H]1[C@@H]2C[C@@H](Oc3ccc(F)cc3)C[C@@H]21 (stereo partly drawn) [Compound 14, 4-chloro-N-(1-((1R,3s,5S,6r)-3-(4-fluorophenoxy)bicyclo[3.1.0]hexan-6-yl)propyl)benzamide]	< 200
CC(NC(=O)c1ccc(Cl)cc1)[C@H]1[C@@H]2C[C@@H](Oc3ncnc4ccc(F)cc34)C[C@@H]21 (stereo partly drawn) [Compound 13, 4-chloro-N-(1-((1R,3s,5S,6r)-3-((6-fluoroquinazolin-4-yl)oxy)bicyclo[3.1.0]hexan-6-yl)ethyl)benzamide]	< 200
CC[C@@H](NC(=O)N1CCOCC1)[C@H]1[C@@H]2C[C@@H](n3cnc4cc(F)c(F)cc43)C[C@@H]21 [Compound 356, N-((R)-1-((1R,3S,5S,6r)-3-(5,6-difluoro-1H-benzo[d]imidazol-1-yl)bicyclo[3.1.0]hexan-6-yl)propyl)morpholine-4-carboxamide]	2000 to 5000
CC[C@@H](NC(=O)c1ccc(Cl)cc1)[C@H]1[C@@H]2C[C@@H](Nc3ccccc3C#N)C[C@@H]21 [Compound 331, 4-chloro-N—((R)-1-((1R,3S,5S, 6r)-3-((2-cyanophenyl)amino)bicyclo[3.1.0]hexan-6-yl)propyl)benzamide]	< 200
CC[C@@H](NC(=O)c1ccc(Cl)cc1)[C@H]1[C@@H]2C[C@@H](n3cc(C(C)(C)O)nn3)C[C@@H]21 [Compound 142, 4-chloro-N-((S)-1-((1R,3R,5S,6r)-3-(4-(2-hydroxypropan-2-yl)-1H-1,2,3-triazol-1-yl)bicyclo[3.1.0]hexan-6-yl)propyl)benzamide]	> 5000
CC[C@@H](NC(=O)c1ccc(Cl)cc1)[C@H]1[C@@H]2C[C@@H](c3ncnc4ccc(F)cc34)C[C@@H]21 [Compound 279, 4-chloro-N-((R)-1-((1R,3S,5S,6r)-3-(6-fluoroquinazolin-4-yl)bicyclo[3.1.0]hexan-6-yl)propyl)benzamide]	< 200
CC(NC(=O)c1ccc(C#N)cc1)C1[C@H]2CC(O)C[C@@H]12 (stereo partly drawn) [Compound 106, 4-cyano-N-(1-((1R,3s,5S,6r)-3-hydroxybicyclo[3.1.0]hexan-6-yl)ethyl)benzamide]	> 5000
CCC(NC(=O)c1ccc(Cl)cc1)[C@H]1[C@@H]2C[C@@H](n3cc4cc(F)ccc4n3)C[C@@H]21 (stereo partly drawn) [Compound 207, 4-chloro-N-(1-((1R,3s,5S,6r)-3-(5-fluoro-2H-indazol-2-yl)bicyclo[3.1.0]hexan-6-yl)propyl)benzamide]	< 200
COc1ccc(C(=O)NC[C@@H]2[C@H]3C[C@H](n4cnc5cc(F)c(F)cc54)C[C@@H]23)cn1 [Compound 318, N-(((1R,3s,5S,6r)-3-(5,6-difluoro-1H-benzo[d]imidazol-1-yl)bicyclo[3.1.0]hexan-6-yl)methyl)-6-methoxynicotinamide]	200 to 2000
Cc1ccc(C(=O)NC[C@@H]2[C@H]3C[C@H](n4cnc5cc(F)c(F)cc54)C[C@@H]23)cn1 [Compound 317, N-(((1R,3s,5S,6r)-3-(5,6-difluoro-1H-benzo[d]imidazol-1-yl)bicyclo[3.1.0]hexan-6-yl)methyl)-6-methylnicotinamide]	200 to 2000
O=C(Cc1ccc(Cl)cc1)N[C@H]1[C@@H]2C[C@@H](n3ncc(=O)c4ccccc43)C[C@@H]21 [Compound 85, 2-(4-chlorophenyl)-N-((1R,3s,5S,6r)-3-(4-oxocinnolin-1(4H)-yl)bicyclo[3.1.0]hexan-6-yl)acetamide]	> 5000
COc1ccc(C(=O)NC(C)[C@H]2[C@@H]3C[C@@H](Oc4ncnc5ccc(F)cc45)C[C@@H]32)cn1 (stereo partly drawn) [Compound 115, N-(1-((1R,3s,5S,6r)-3-((6-fluoroquinazolin-4-yl)oxy)bicyclo[3.1.0]hexan-6-yl)ethyl)-6-methoxynicotinamide]	< 200
CCC(NC(=O)c1ccc(Cl)cc1)[C@H]1[C@@H]2C[C@@H](N3CCOCC3)C[C@@H]21 (stereo partly drawn) [Compound 73, 4-chloro-N-(1-((1R,3s,5S,6r)-3-morpholinobicyclo[3.1.0]hexan-6-yl)propyl)benzamide]	2000 to 5000
O=C(NC[C@@H]1[C@H]2C[C@H](n3cnc4ccc(F)cc4c3=O)C[C@@H]12)c1ccc(Cl)cc1 [Compound 65, 4-chloro-N-(((1R,3s,5S,6r)-3-(6-fluoro-4-oxoquinazolin-3(4H)-yl)bicyclo[3.1.0]hexan-6-yl)methyl)benzamide]	200 to 2000

Compound	IC50 [nM]
CCOC(=O)C(C(=O)OCC)[C@@H]1C[C@@H]2[C@H](C1)[C@H]2[C@@H](CC)NC(=O)c1ccc(Cl)cc1 [Compound 290, diethyl 2-((1R,3S,5S,6r)-6-((R)-1-(4-chlorobenzamido)propyl)bicyclo[3.1.0]hexan-3-yl)malonate]	< 200
C[C@H](C(=O)Nc1ccc(Cl)cc1)[C@H]1[C@@H]2C[C@@H](n3cnc4cc(F)c(F)cc43)C[C@@H]21 [Compound 299, (S)-N-(4-chlorophenyl)-2-((1R,3R,5S,6r)-3-(5,6-difluoro-1H-benzo[d]imidazol-1-yl)bicyclo[3.1.0]hexan-6-yl)propanamide]	< 200
CCC(NC(=O)c1ccc(Cl)cc1)C1C2CC(Oc3ncnc4cccc(F)c34)CC21 [Compound 37, 4-chloro-N-(1-((1R,3s,5S,6r)-3-((5-fluoroquinazolin-4-yl)oxy)bicyclo[3.1.0]hexan-6-yl)propyl)benzamide]	< 200
CC[C@@H](NC(=O)c1cccc(Cl)c1)[C@H]1[C@@H]2C[C@@H](n3cnc4cc(F)c(F)cc43)C[C@@H]21 [Compound 310, 3-chloro-N-((R)-1-((1R,3S,5S,6r)-3-(5,6-difluoro-1H-benzo[d]imidazol-1-yl)bicyclo[3.1.0]hexan-6-yl)propyl)benzamide]	< 200
CC[C@@H](NC(=O)c1ccc(Cl)cc1)[C@H]1[C@@H]2C[C@@H](n3cc(I)cn3)C[C@@H]21 [Compound 304, 4-chloro-N-((R)-1-((1R,3S,5S,6r)-3-(4-iodo-1H-pyrazol-1-yl)bicyclo[3.1.0]hexan-6-yl)propyl)benzamide]	< 200
CCC(NC(=O)c1ccc(Cl)cc1)[C@H]1[C@@H]2C[C@@H](Oc3ncnc4cc(Cl)ccc34)C[C@@H]21 (stereo partly drawn) [Compound 21, 4-chloro-N-(1-((1R,3s,5S,6r)-3-((7-chloroquinazolin-4-yl)oxy)bicyclo[3.1.0]hexan-6-yl)propyl)benzamide]	< 200
CC[C@@H](NC(=O)c1ccc(Cl)cc1)[C@H]1[C@@H]2C[C@@H](n3cc(C#N)cn3)C[C@@H]21 [Compound 325, 4-chloro-N-((R)-1-((1R,3S,5S,6r)-3-(4-cyano-1H-pyrazol-1-yl)bicyclo[3.1.0]hexan-6-yl)propyl)benzamide]	< 200
CCC(NC(=O)c1ccc(Cl)cc1)[C@H]1[C@@H]2C[C@@H](Oc3ncnc4ccccc34)C[C@@H]21 (stereo partly drawn) [Compound 59, 4-chloro-N-(1-((1R,3s,5S,6r)-3-(quinazolin-4-yloxy)bicyclo[3.1.0]hexan-6-yl)propyl)benzamide]	< 200
CC[C@@H](NC(=O)c1ccc(Cl)cc1)[C@H]1[C@@H]2C[C@@H](c3cnn(C4CC4)c3)C[C@@H]21 [Compound 292, 4-chloro-N—((R)-1-((1R,3S,5S, 6r)-3-(1-cyclopropyl-1H-pyrazol-4-yl)bicyclo[3.1.0]hexan-6-yl)propyl)benzamide]	< 200
CCC(NC(=O)c1ccc(Cl)cc1)[C@H]1[C@@H]2C[C@@H](N3C(=O)C(F)(F)c4ccccc43)C[C@@H]21 (stereo partly drawn) [Compound 119, 4-chloro-N-(1-((1R,3s,5S,6r)-3-(3,3-difluoro-2-oxoindolin-1-yl)bicyclo[3.1.0]hexan-6-yl)propyl)benzamide]	< 200
CC(NC(=O)c1ccc(C#N)cc1)C1[C@H]2CC(Oc3ncnc4ccc(F)cc34)C[C@@H]12 (stereo partly drawn) [Compound 107, 4-cyano-N-(1-((1R,3s,5S,6r)-3-((6-fluoroquinazolin-4-yl)oxy)bicyclo[3.1.0]hexan-6-yl)ethyl)benzamide]	< 200
CC(NC(=O)c1ccc(C#N)cc1)[C@H]1[C@@H]2C[C@@H](n3cnc4ccc(F)cc4c3=O)C[C@@H]21 (stereo partly drawn) [Compound 108, 4-cyano-N-(1-((1R,3s,5S,6r)-3-(6-fluoro-4-oxoquinazolin-3(4H)-yl)bicyclo[3.1.0]hexan-6-yl)ethyl)benzamide]	< 200
CC[C@@H](NC(=O)c1ccc(C#N)cc1)[C@H]1[C@@H]2C[C@@H](n3c(C)nc4ccc(C#N)cc43)C[C@@H]21 [Compound 293, 4-cyano-N-((R)-1-((1R,3S,5S,6r)-3-(6-cyano-2-methyl-1H-benzo[d]imidazol-1-yl)bicyclo[3.1.0]hexan-6-yl)propyl)benzamide]	200 to 2000
CCC(NC(=O)c1ccc(Cl)cc1)[C@H]1[C@@H]2C[C@@H](OC3CCOCC3)C[C@@H]21 (stereo partly drawn) [Compound 101, 4-chloro-N-(1-((1R,3s,5S,6r)-3-((tetrahydro-2H-pyran-4-yl)oxy)bicyclo[3.1.0]hexan-6-yl)propyl)benzamide]	200 to 2000
CC[C@@H](NC(=O)c1ccc(Cl)cc1)[C@H]1[C@@H]2C[C@@H](n3cccn3)C[C@@H]21 [Compound 324, N-((R)-1-((1R,3S,5S,6r)-3-(1H-pyrazol-1-yl)bicyclo[3.1.0]hexan-6-yl)propyl)-4-chlorobenzamide]	< 200
